Test: Saturated MTZ solubility at 25° C. in solvents and solvent mixtures
Assay type: physicochemical
[1] = MTZ in Phosphate buffer, 50 mM, pH 4
[2] = MTZ in Phosphate buffer, 50 mM, pH 6

Solubility at 25° C. (n = 3, mean ± SEM) (MTZ in 1 wt % aq. polysorbate 60): 9.72 ± 0.08 mg/g | Solubility at 25° C. (n = 3, mean ± SEM) (MTZ in 2 wt % aq. Benzyl alcohol): 10.81 ± 0.040 mg/g | Solubility at 25° C. (n = 3, mean ± SEM) (MTZ in 10 wt % aq. Lutrol F127): 9.15 ± 0.09 mg/g | Solubility at 25° C. (n = 3, mean ± SEM) (MTZ in 50 wt % aq. glycerol): 7.62 ± 0.19 mg/g | Solubility at 25° C. (n = 3, mean ± SEM) (MTZ in Deionized water): 8.70 ± 0.09 mg/g | Solubility at 25° C. (n = 1) (MTZ in Ethanol): 19.96 mg/g | Solubility at 25° C. (n = 3, mean ± SEM) (MTZ in Ethanol): 16.36 ± 0.12 mg/g | Solubility at 25° C. (n = 1) (MTZ in Ethylene glycol): 21.34 mg/g | Solubility at 25° C. (n = 1) (MTZ in Glycerol): 8.35 mg/g | Solubility at 25° C. (n = 1) (MTZ in PEG 400): 24.78 mg/g | Solubility at 25° C. (n = 3, mean ± SEM) (MTZ in PEG 400): 18.79 ± 1.23 mg/g | Solubility at 25° C. (n = 1) [1]: 9.09 mg/g | Solubility at 25° C. (n = 3, mean ± SEM) [1]: 8.26 ± 0.45 mg/g | Solubility at 25° C. (n = 1) (MTZ in Phosphate buffer, 50 mM, pH 5): 9.13 mg/g | Solubility at 25° C. (n = 1) [2]: 9.10 mg/g | Solubility at 25° C. (n = 3, mean ± SEM) [2]: 8.57 ± 0.05 mg/g | Solubility at 25° C. (n = 1) (MTZ in Phosphate buffer, 50 mM, pH 7): 9.07 mg/g | Solubility at 25° C. (n = 1) (MTZ in Propylene glycol): 20.74 mg/g | Solubility at 25° C. (n = 3, mean ± SEM) (MTZ in Propylene glycol): 18.62 ± 0.25 mg/g | Solubility at 25° C. (n = 1) (MTZ in tetraglycol): 29.65 mg/g | saturated MTZ solubility at 25° C. (in certain alcohols (ethanol, benzyl alcohol), diols (ethylene glycol, propylene glycol), polyethers (PEG 400)): at least 20 mg/g
Compound: Cc1ncc([N+](=O)[O-])n1CCO [MTZ, 2-(2-methyl-5-nitro-1H-imidazol-1-yl)ethanol]
